This note sets out measurements from patent US20240190855A1 (Relay Therapeutics, Inc., priority 2021, published 2024).

The target of the experiment is T1, CDK2/Cyclin E complex (Homo sapiens, UniProt P24941).
T1 construct: purchased Eurofins 14-475
Briefly: CDK2/Cyclin E fluorescence-based microfluidic mobility shift assay (CDK2 Biochemical Caliper Assay). Particulars: read-out: Biochemical CDK2/CyclinE Caliper IC50. The protocol: Compounds of the present disclosure were tested in a CDK2/Cyclin E fluorescence-based microfluidic mobility shift assay (PerkinElmer).
The active wild type CDK2/Cyclin E complex was purchased from Eurofins (14-475). Compound stocks were prepared in DMSO and were serially diluted into 11 concentrations by 3-fold dilution. […] Compounds were incubated in the presence of CDK2/Cyclin E complex and ATP for 30 minutes at room temperature. Catalytic reaction was initiated with the addition of 5 uL of a 4× peptide solution containing 6 uM fluorescently label substrate peptide, FL Peptide 18 (aa sequence 5-FAM-QSPKKG, PerkinElmer, 760362) in 1× reaction buffer.
The final reaction components were 0.1 nM CDK2/Cyclin E, 2000 uM ATP and 1.5 uM FL Peptide 18 and 1% DMSO. Reactions were incubated RT for 20 hr and terminated with 75 uL of a stopping solution containing 0.5 M EDTA. Samples were analyzed using a LabChip EZ reader (PerkinElmer).

pIC50: −log10 of the molar value. Where only a bound is given, the exact number is not on record here.

`Cc1cc(CC(=O)Nc2cc([C@H]3CC[C@@H](CC(=O)O)C3)[nH]n2)on1` (single isomer, unassigned) [Example 341]: the pIC50 is 4.00 to 6.00.
The value for `Cc1cc(CC(=O)Nc2cc([C@@H]3CC[C@H](CC(=O)O)C3)[nH]n2)on1` (single isomer, unassigned) [Example 342] was 4.00 to 6.00; that for `Cc1cc(CC(=O)Nc2cc([C@H]3CC[C@H](CC(=O)O)C3)[nH]n2)on1` (single isomer, unassigned) [Example 343] was 4.00 to 6.00; that for `Cc1cc(CC(=O)Nc2cc([C@@H]3CC[C@@H](CC(=O)O)C3)[nH]n2)on1` (single isomer, unassigned) [Example 344] was 4.00 to 6.00.
As for `Cc1cc(CC(=O)Nc2cc([C@@H]3C[C@H](OC(=O)NC(C)C)CO3)[nH]n2)on1` (single isomer, unassigned) [Example 345], the pIC50 is 6.60 to 7.00.
Consider `Cc1cc(CC(=O)Nc2cc([C@H]3C[C@@H](OC(=O)NC(C)C)CO3)[nH]n2)on1` (single isomer, unassigned) [Example 346], for which the pIC50 is 6.60 to 7.00.
As for `Cc1cc(CC(=O)Nc2cc([C@@H]3CC[C@H](n4cc(C)[nH]c4=O)C3)[nH]n2)on1` (single isomer, unassigned) [Example 349], the pIC50 is 6.00 to 6.60.
Consider `Cc1cc(CC(=O)Nc2cc([C@@H]3CC[C@H](Oc4ccccc4)C3)[nH]n2)on1` (single isomer, unassigned) [Example 350], for which the pIC50 is 4.00 to 6.00.
Regarding `Cc1cc(CC(=O)Nc2cc([C@H]3CC[C@@H](Oc4ccccc4)C3)[nH]n2)on1` (single isomer, unassigned) [Example 351], the pIC50 was 6.60 to 7.00.
Regarding `Cc1cc(CC(=O)Nc2cc([C@H]3CC[C@@H](OC(=O)CC(C)C)C3)[nH]n2)on1` (single isomer, unassigned) [Example 352], the pIC50 is no less than 7.00.
In the case of `Cc1cc(CC(=O)Nc2cc([C@@H]3CC[C@H](OC(=O)CC(C)C)C3)[nH]n2)on1` (single isomer, unassigned) [Example 353], the pIC50 was no less than 7.00.
As to `Cc1cncc(O[C@H]2CC[C@@H](c3cc(NC(=O)Cc4cc(C)no4)n[nH]3)C2)c1` (single isomer, unassigned) [Example 354], the pIC50 was 4.00 to 6.00.
As for `Cc1cncc(O[C@@H]2CC[C@H](c3cc(NC(=O)Cc4cc(C)no4)n[nH]3)C2)c1` (single isomer, unassigned) [Example 355], the pIC50 is 6.00 to 6.60.
For the compound `Cc1ccc(O[C@H]2CC[C@@H](c3cc(NC(=O)Cc4cc(C)no4)n[nH]3)C2)cn1` (single isomer, unassigned) [Example 356], the pIC50 is 6.00 to 6.60.
Regarding `Cc1ccc(O[C@@H]2CC[C@H](c3cc(NC(=O)Cc4cc(C)no4)n[nH]3)C2)cn1` (single isomer, unassigned) [Example 357], the pIC50 was 4.00 to 6.00.
The value for `Cc1cc(CC(=O)Nc2cc([C@@H]3CC[C@H](Oc4cccnc4C)C3)[nH]n2)on1` (single isomer, unassigned) [Example 358] was 6.00 to 6.60; that for `Cc1cc(CC(=O)Nc2cc([C@H]3CC[C@@H](Oc4cccnc4C)C3)[nH]n2)on1` (single isomer, unassigned) [Example 359] was 6.60 to 7.00; that for `Cc1cc(CC(=O)Nc2cc([C@H]3CC[C@@H](Oc4cncnc4)C3)[nH]n2)on1` (single isomer, unassigned) [Example 362] was 4.00 to 6.00.
In the case of `Cc1cc(CC(=O)Nc2cc([C@@H]3CC[C@H](Oc4cncnc4)C3)[nH]n2)on1` (single isomer, unassigned) [Example 363], the pIC50 is 6.00 to 6.60.
On to `COCc1cc(C(=O)Nc2cc([C@H]3CC[C@@H](Oc4ccccc4)C3)[nH]n2)n(C)n1` (single isomer, unassigned) [Example 364], for which the pIC50 is 4.00 to 6.00.
For the compound `COCc1cc(C(=O)Nc2cc([C@@H]3CC[C@H](Oc4ccccc4)C3)[nH]n2)n(C)n1` (single isomer, unassigned) [Example 365], the pIC50 is 6.00 to 6.60.
In the case of `COCc1cc(C(=O)Nc2cc([C@H]3CC[C@@H](Oc4cnccc4C)C3)[nH]n2)n(C)n1` (single isomer, unassigned) [Example 366], the pIC50 is 4.00 to 6.00.
The value for `COCc1cc(C(=O)Nc2cc([C@@H]3CC[C@H](Oc4cnccc4C)C3)[nH]n2)n(C)n1` (single isomer, unassigned) [Example 367] was 6.60 to 7.00; that for `Cc1cc(CC(=O)Nc2cc([C@H]3CC[C@@H](Cc4nncn4C(C)C)C3)[nH]n2)on1` (single isomer, unassigned) [Example 370] was 4.00 to 6.00; that for `Cc1cc(CC(=O)Nc2cc([C@@H]3CC[C@H](Cc4nncn4C(C)C)C3)[nH]n2)on1` (single isomer, unassigned) [Example 371] was 4.00 to 6.00.
For `Cc1cc(CC(=O)Nc2cc([C@@H]3CC[C@@H](Cc4nncn4C(C)C)C3)[nH]n2)on1` (single isomer, unassigned) [Example 372], the pIC50 was 4.00 to 6.00.
Take `Cc1cc(CC(=O)Nc2cc([C@H]3CC[C@H](Cc4nncn4C(C)C)C3)[nH]n2)on1` (single isomer, unassigned) [Example 373]: the pIC50 was 6.60 to 7.00.
For `CC(C)NC(=O)O[C@@H]1CC[C@H](c2cc(NC(=O)CN(C)c3ncnc4nc[nH]c34)n[nH]2)C1` (single isomer, unassigned) [Example 374], the pIC50 was 6.60 to 7.00.
As to `CC(C)NC(=O)O[C@H]1CC[C@@H](c2cc(NC(=O)CN(C)c3ncnc4nc[nH]c34)[nH]n2)C1` (single isomer, unassigned) [Example 375], the pIC50 is no less than 7.00.
As for `Cc1cc(CC(=O)Nc2cc([C@@H]3CC[C@@H](O)C3)[nH]n2)on1` (single isomer, unassigned) [Example 376], the pIC50 was 4.00 to 6.00.
With `Cc1cc(CC(=O)Nc2cc([C@H]3CC[C@H](O)C3)[nH]n2)on1` (single isomer, unassigned) [Example 377] the figure was 4.00 to 6.00.
On to `Cc1cc(CC(=O)Nc2cc([C@@H]3CC[C@H](n4cc(C(C)C)[nH]c4=O)C3)[nH]n2)on1` (single isomer, unassigned) [Example 378], for which the pIC50 was 4.00 to 6.00.
`Cc1cc(CC(=O)Nc2cc([C@@H]3CC[C@H](Oc4cnccc4C)C3)[nH]n2)on1` (single isomer, unassigned) [Example 379]: the pIC50 was 6.00 to 6.60.
As for `Cc1cc(CC(=O)Nc2cc([C@H]3CC[C@@H](Oc4cnccc4C)C3)[nH]n2)on1` (single isomer, unassigned) [Example 380], the pIC50 is 6.60 to 7.00.
Consider `Cc1cc(CC(=O)Nc2cc([C@H]3CC[C@@H](Oc4cnccc4C4CC4)C3)[nH]n2)on1` (single isomer, unassigned) [Example 381], for which the pIC50 was no less than 7.00.
On to `Cc1cc(CC(=O)Nc2cc([C@@H]3CC[C@H](Oc4cnccc4C4CC4)C3)[nH]n2)on1` (single isomer, unassigned) [Example 382], for which the pIC50 was 6.00 to 6.60.
The value for `COCc1cc(C(=O)Nc2cc([C@H]3CC[C@@H](Oc4cncc(C)c4)C3)[nH]n2)n(C)n1` (single isomer, unassigned) [Example 383] was 4.00 to 6.00; that for `COCc1cc(C(=O)Nc2cc([C@@H]3CC[C@H](Oc4cncc(C)c4)C3)[nH]n2)n(C)n1` (single isomer, unassigned) [Example 384] was 4.00 to 6.00; that for `COCc1cc(C(=O)Nc2cc([C@H]3CC[C@@H](Oc4cccnc4C)C3)[nH]n2)n(C)n1` (single isomer, unassigned) [Example 385] was 4.00 to 6.00.
